Assay results as given in ChEMBL document CHEMBL3885861, “Open TG-GATES”.

Species: Rattus norvegicus
Test: Open TG-GATES - Regimen: Single
Format: toxicity, organism-based, Sprague-Dawley
Parameters: regimen Single, gender Male, age 6 weeks
Conditions: in vivo, po, 300 mg/kg, route gavage, dose level Middle; for APTT / Bas / Eos / Fbg / Hb / Ht / Lym / MCH / MCHC / MCV / Mono / Neu / PT / Plat / RBC / Ret / WBC: tissue Blood; for KIDNEY_L / KIDNEY_R / KIDNEY_TOTAL: tissue Kidney; for LIVER: tissue Liver; for A/G / ALP / ALT / AST / BUN / CRE / Ca / Cl / DBIL / GLC / IP / K / LDH / Na / PL / RALB / TBIL / TC / TG / TP / gamma-GTP: tissue Plasma

In the case of `CNC(=C[N+](=O)[O-])NCCSCc1ccc(CN(C)C)o1` [RANITIDINE], the TERMINAL_BW (3 h) is reported as 216.6 g, the APTT (3 h) is reported as 21.3 s and the Bas (3 h) is reported as 0%. For the same compound, the Eos (3 h) was 1.2%, the Fbg (3 h) was 224 mg/dL and the Hb (3 h) was 13.1 g/dL. For the same compound, the Ht (3 h) was 38.4%, the Lym (3 h) was 75.2% and the MCH (3 h) was 21.7 pg. The MCHC (3 h) was 34.2%, the MCV (3 h) was 63.4 fL and the Mono (3 h) was 2.4%. For the same compound, the Neu (3 h) was 18.8%, the PT (3 h) was 12.5 s and the Plat (3 h) was 125.4 x10_4/uL. For the same compound, the RBC (3 h) was 606 x10_4/ul, the Ret (3 h) was 6.6% and the WBC (3 h) was 93.9 x10_2/uL. The KIDNEY_L (3 h) was 1 g, the KIDNEY_R (3 h) was 1 g and the KIDNEY_TOTAL (3 h) was 2 g. It also gave an LIVER (3 h) of 9.9 g, an A/G (3 h) of 1.7 and an ALP (3 h) of 1000.2 IU/L. For the same compound, the ALT (3 h) was 34.4 IU/L, the AST (3 h) was 63.8 IU/L and the BUN (3 h) was 10.2 mg/dL. It also gave a CRE (3 h) of 0.4 mg/dL, a Ca (3 h) of 10.7 mg/dL and a Cl (3 h) of 103.8 meq/L. The DBIL (3 h) was 0.07 mg/dL, the GLC (3 h) was 195.6 mg/dL and the IP (3 h) was 8.4 mg/dL. For the same compound, the K (3 h) was 3.8 meq/L, the LDH (3 h) was 141.6 IU/L and the Na (3 h) was 141.6 meq/L. For the same compound, the PL (3 h) was 141.2 mg/dL, the RALB (3 h) was 3.4 g/dL and the TBIL (3 h) was 0.1 mg/dL. For the same compound, the TC (3 h) was 74.2 mg/dL, the TG (3 h) was 48 mg/dL and the TP (3 h) was 5.5 g/dL. The gamma-GTP (3 h) was 0.8 IU/L, the TERMINAL_BW (6 h) was 214.7 g and the APTT (6 h) was 18.8 s. It also gave a Bas (6 h) of 0%, an Eos (6 h) of 1% and a Fbg (6 h) of 220.8 mg/dL. It also gave a Hb (6 h) of 13.1 g/dL, a Ht (6 h) of 37.8% and a Lym (6 h) of 72.6%. The MCH (6 h) was 21.6 pg, the MCHC (6 h) was 34.7% and the MCV (6 h) was 62.4 fL. The Mono (6 h) was 2.4%, the Neu (6 h) was 19.8% and the PT (6 h) was 12.6 s. The Plat (6 h) was 119.8 x10_4/uL, the RBC (6 h) was 605 x10_4/ul and the Ret (6 h) was 6.9%. It also gave a WBC (6 h) of 82.1 x10_2/uL, a KIDNEY_L (6 h) of 1 g and a KIDNEY_R (6 h) of 1 g. The KIDNEY_TOTAL (6 h) was 1.9 g, the LIVER (6 h) was 9.2 g and the A/G (6 h) was 1.6. For the same compound, the ALP (6 h) was 918.8 IU/L, the ALT (6 h) was 36.6 IU/L and the AST (6 h) was 69.6 IU/L. It also gave a BUN (6 h) of 8.4 mg/dL, a CRE (6 h) of 0.4 mg/dL and a Ca (6 h) of 10.4 mg/dL. The Cl (6 h) was 103.6 meq/L, the DBIL (6 h) was 0.06 mg/dL and the GLC (6 h) was 193.4 mg/dL. The IP (6 h) was 8.5 mg/dL, the K (6 h) was 3.8 meq/L and the LDH (6 h) was 111.4 IU/L. The Na (6 h) was 140.4 meq/L, the PL (6 h) was 129.2 mg/dL and the RALB (6 h) was 3.3 g/dL. It also gave a TBIL (6 h) of 0.1 mg/dL, a TC (6 h) of 69.2 mg/dL and a TG (6 h) of 43.2 mg/dL. It also gave a TP (6 h) of 5.4 g/dL and a gamma-GTP (6 h) of 1.4 IU/L.
